In PMC4076294 (Journal of the American Chemical Society, 2014):
Values joined by “and” are separate entries in the source; they are usually repeats but may differ in a detail not shown here. Equal entries are not always repeated.

Tests used:
[1] = system: nuclear DNA of A2780 cells; test: DNA platination experiment; type: cell-based, human; settings: 5 μM, 5 h, then 16 h in fresh media
A2780 = test: MTT assay; type: cell-based, human; settings: read-out: IC50 at 48 h; A2780, 48 h
[2] = system: A2780 ovarian cancer cells; test: LIVE/DEAD cell viability assay; type: cell-based, human; settings: 10 μM, 48 h
[3] = comparison values; cited from earlier work

SMILES	extent of DNA platination [1]	IC50 (A2780) [µM]	LIVE/DEAD cell assay outcome [2]	half-life in blood (t1/2) [3]
N.N.[Cl][Pt][Cl] [cisplatin]	36.4 ± 5.5 Pt adducts/10^6 nucleotides	6.35 ± 1.39	mostly survived	
CC(=O)[O][Pt]([NH2])([Cl])([Cl])([NH]C1CCCCC1)[O]C(C)=O [satraplatin]				6.3 min and ~6 min
